Results on 19 compounds are retold here after article PMC10213797 (Acta Pharmaceutica Sinica. B, 2023).

Data set [1] concerns the target Aβ1–42 (Homo sapiens, UniProt P05067). Description: Aβ1–42 aggregation inhibition, ThT fluorescence assay. It counts as biochemical. The settings on record: 10 μmol/L ligand and 1.5 μmol/L Aβ1–42; mean ± SD (n ≥ 3).
A short description of data set [2]: DPPH radical-scavenging assay. The settings on record: means ± SEM (n = 2, in triplicates); for EC50: read-out: Radical-scavenging DPPH assay EC50. In general terms: Loss of DPPH colour is used to gauge radical scavenging.
A short description of data set [3]: BBB-PAMPA permeability. The settings on record: pH 7.4, 4 h, 25 °C, brain sink buffer; for Papp at 4 h, 100 μmol/L: PAMPA, pH 7.4, BBB–PAMPA permeability Papp (mean ± SD).
Data set [4] deals with hBChE (Homo sapiens, UniProt P06276). The experiment in a line: hBChE inhibition, Ellman's method. The conditions noted are these: IC50 ± SEM hBChE, Table 1; n = 3, in triplicates. It counts as biochemical. A general note: DTNB colorimetry detects thiols as they appear.
Chain of hBChE (P06276 29-602): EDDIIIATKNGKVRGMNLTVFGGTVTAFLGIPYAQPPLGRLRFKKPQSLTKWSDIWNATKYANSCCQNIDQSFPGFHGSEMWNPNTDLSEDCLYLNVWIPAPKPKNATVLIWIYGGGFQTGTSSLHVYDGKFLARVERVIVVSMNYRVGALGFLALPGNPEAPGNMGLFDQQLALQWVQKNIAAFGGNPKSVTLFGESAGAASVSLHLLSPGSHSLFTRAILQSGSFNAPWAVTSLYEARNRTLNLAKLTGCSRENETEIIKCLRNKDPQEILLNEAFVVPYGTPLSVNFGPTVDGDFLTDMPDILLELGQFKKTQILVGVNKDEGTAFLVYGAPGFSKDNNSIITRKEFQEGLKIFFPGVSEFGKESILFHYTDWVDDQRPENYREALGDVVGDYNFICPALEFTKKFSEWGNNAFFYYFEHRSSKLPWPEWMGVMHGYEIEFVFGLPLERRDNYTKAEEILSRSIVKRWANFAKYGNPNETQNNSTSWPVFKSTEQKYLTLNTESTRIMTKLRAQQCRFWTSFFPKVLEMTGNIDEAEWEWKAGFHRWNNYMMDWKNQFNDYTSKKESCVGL
For data set [5], the system named is mice. Description: Rotarod test. The conditions noted are these: 2.5 mg/kg. It counts as in vivo. Background: In the rotarod test animals must keep their balance on a rotating rod.
The test system of data set [6] is scopolamine-induced amnesic mice. Description: Passive avoidance. It counts as in vivo. The settings on record: doses of one and 2 mg/kg; P < 0.001.
Data set [7] has as its target T1, hMAO-A (Homo sapiens, UniProt P21397).
T1 sequence (P21397 1-527): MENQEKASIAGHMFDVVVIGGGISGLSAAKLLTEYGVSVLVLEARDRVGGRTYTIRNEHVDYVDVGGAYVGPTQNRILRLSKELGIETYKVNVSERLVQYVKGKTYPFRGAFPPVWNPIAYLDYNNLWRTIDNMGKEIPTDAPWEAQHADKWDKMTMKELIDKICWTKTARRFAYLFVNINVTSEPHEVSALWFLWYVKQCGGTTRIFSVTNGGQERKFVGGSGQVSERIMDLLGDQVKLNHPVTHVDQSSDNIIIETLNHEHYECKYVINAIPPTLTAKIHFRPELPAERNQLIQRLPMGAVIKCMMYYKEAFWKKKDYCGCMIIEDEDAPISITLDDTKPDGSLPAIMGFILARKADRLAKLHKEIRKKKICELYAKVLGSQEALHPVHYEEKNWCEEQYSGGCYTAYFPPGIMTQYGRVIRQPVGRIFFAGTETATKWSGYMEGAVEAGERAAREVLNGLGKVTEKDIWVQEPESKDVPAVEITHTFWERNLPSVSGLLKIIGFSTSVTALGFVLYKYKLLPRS
The experiment in a line: hMAO-A inhibition, horseradish-Amplex Red coupled assay. It is filed as biochemical.

Data set [8] deals with hAChE (Homo sapiens, UniProt P22303). The experiment in a line: hAChE inhibition, Ellman's method. It is filed as biochemical.
Chain of hAChE (P22303 32-614): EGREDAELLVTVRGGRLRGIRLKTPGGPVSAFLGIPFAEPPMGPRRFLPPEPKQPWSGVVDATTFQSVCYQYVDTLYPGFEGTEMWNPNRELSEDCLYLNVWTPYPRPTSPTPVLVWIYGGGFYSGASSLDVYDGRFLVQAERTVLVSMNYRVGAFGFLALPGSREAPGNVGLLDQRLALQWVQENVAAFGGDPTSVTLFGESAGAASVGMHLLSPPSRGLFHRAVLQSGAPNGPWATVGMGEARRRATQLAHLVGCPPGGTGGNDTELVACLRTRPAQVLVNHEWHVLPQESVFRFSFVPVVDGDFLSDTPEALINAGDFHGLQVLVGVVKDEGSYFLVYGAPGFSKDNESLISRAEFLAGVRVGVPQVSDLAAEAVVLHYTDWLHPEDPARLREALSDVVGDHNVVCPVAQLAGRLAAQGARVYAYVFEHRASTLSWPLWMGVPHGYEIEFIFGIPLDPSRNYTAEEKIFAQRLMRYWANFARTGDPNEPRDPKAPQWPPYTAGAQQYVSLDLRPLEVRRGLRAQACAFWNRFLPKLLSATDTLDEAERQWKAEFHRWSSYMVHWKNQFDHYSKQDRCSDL
The target of data set [9] is T2, hMAO-B (Homo sapiens, UniProt P27338).
T2 sequence (P27338 1-520): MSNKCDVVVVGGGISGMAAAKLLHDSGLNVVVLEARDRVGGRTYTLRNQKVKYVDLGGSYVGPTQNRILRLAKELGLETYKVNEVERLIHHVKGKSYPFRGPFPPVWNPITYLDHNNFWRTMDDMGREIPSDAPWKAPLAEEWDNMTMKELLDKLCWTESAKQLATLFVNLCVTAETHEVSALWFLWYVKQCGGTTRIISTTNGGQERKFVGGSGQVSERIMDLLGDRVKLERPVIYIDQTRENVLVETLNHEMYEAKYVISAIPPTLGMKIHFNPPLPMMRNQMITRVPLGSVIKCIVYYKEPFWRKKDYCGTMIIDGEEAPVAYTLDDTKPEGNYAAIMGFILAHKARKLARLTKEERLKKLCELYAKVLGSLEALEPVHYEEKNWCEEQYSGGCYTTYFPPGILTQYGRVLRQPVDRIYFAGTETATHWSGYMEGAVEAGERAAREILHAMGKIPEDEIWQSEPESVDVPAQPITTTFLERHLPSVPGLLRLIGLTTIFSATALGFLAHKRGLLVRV
Description: hMAO-B inhibition, horseradish-Amplex Red coupled assay. It counts as biochemical.

Data set [10] concerns horse serum BChE (eqBChE). The settings on record: cited from earlier work.
Data set [11] relates to murine AChE. The conditions noted are these: cited from earlier work.
Data set [12] deals with Electrophorus electricus AChE (eeAChE). The conditions noted are these: cited from earlier work.

Chain of Aβ1–42 (P05067 672-713): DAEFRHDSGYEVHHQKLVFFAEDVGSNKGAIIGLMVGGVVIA

Usually Papp stands for the rate of passage across a membrane or cell layer, normalised by area and donor concentration. Higher therefore signals ready permeation. Consider `C#CCN1CCN(CCCOc2cccc3ccc(/C=[N+](\[O-])C(C)(C)C)nc23)CC1` [QN 15, (Z)-N-tert-Butyl-1-(8-(3-(4-(prop-2-yn-1-yl)piperazin-1-yl)propoxy)quinolin-2-yl)methanimine oxide], for which the “Inhibition of Aβ1–42 aggregation” value in data set [1] is “n.i. ^e (n.i., no inhibition <20%)”. In data set [2], the “Radical-scavenging DPPH assay EC50” value is given as “n.a. ^d (n.a., not active–% DPPH reduced at 100 μmol/L concentration lower than 10%)”. In [3], the Papp at 4 h, 100 μmol/L is 72.2 ± 2.7 ×10⁻⁶ cm/s and the “BBB–PAMPA permeability −LogPe” value turned out to be 4.1 log [cm/s].

What is called IC50 is the point on the concentration scale where inhibition reaches its midpoint. Consider `COc1cccc2cc(/C=[N+](\[O-])C(C)(C)C)c(OCCCN3CCCCC3)nc12` [QN 1, (Z)-N-tert-Butyl-1-(8-methoxy-2-(3-(piperidin-1-yl)propoxy)quinolin-3-yl)methanimine oxide], for which, in [4], 0.707 ± 0.0454 µM corresponded to half-maximal inhibition (IC50).

Take `CCN(C)C(=O)Oc1cccc([C@H](C)N(C)C)c1` [rivastigmine, reference compound]: the “motor effects shortly after administration” value in data set [5] was “caused muscle tremor and transient motor coordination deficits”. For the same compound, in data set [6], the “step-through latency in retention trial versus scopolamine-treated control” value is recorded as “significant differences”.

Regarding `CC(C)(C)/[N+]([O-])=C/c1cc2cccc(OCCCN3CCCCC3)c2nc1Cl` [QN 5, (Z)-N-tert-Butyl-1-(2-chloro-8-(3-(piperidin-1-yl)propoxy)quinolin-3-yl)methanimine oxide], the IC50 in [7] stood at 113 ± 13.2 µM; in data set [4], 5.57 ± 0.46 µM; in data set [8], 44.7 ± 4.8 µM.

As to `C#CCN1CCN(CCCOc2cccc3cc(/C=[N+](\[O-])Cc4ccccc4)c(Cl)nc23)CC1` [QN 8, (Z)-N-Benzyl-1-(2-chloro-8-(3-(4-(prop-2-yn-1-yl)piperazin-1-yl)propoxy)quinolin-3-yl)methanimine oxide], the IC50 in [7] came to 14.9 ± 1.2 µM; in data set [9], 13.8 ± 1.8 µM; in data set [4] it was 14.8 ± 2.1 µM.

In the case of `[O-]/[N+](=C\c1cc2cccc(O)c2nc1Cl)Cc1ccccc1` [QN 12, (Z)-N-Benzyl-1-(2-chloro-8-hydroxyquinolin-3-yl)methanimine oxide], the IC50 in data set [4] came to 10.7 ± 0.7 µM.

`COc1cccc2cc(/C=[N+](\[O-])C(C)(C)C)c(Cl)nc12` [QN 9, (Z)-N-tert-Butyl-1-(2-chloro-8-methoxyquinolin-3-yl)methanimine oxide]: 15.2 ± 1.1 µM corresponded to half-maximal inhibition in data set [4] (IC50).

Consider `[O-]/[N+](=C\c1cc2cccc(OCCCN3CCCCC3)c2nc1Cl)Cc1ccccc1` [QN 6, (Z)-N-Benzyl-1-(2-chloro-8-(3-(piperidin-1-yl)propoxy)quinolin-3-yl)methanimine oxide], for which the IC50 in [7] stood at 106 ± 3.7 µM; in data set [9] it was 50.4 ± 4.5 µM; in data set [4], 10.2 ± 1.1 µM; in data set [8], 68.6 ± 13.6 µM.

Consider `C#CCN1CCN(CCCOc2nc3c(OC)cccc3cc2/C=[N+](\[O-])Cc2ccccc2)CC1` [QN 4, (Z)-N-Benzyl-1-(8-methoxy-2-(3-(4-(prop-2-yn-1-yl)piperazin-1-yl)propoxy)quinolin-3-yl)methanimine oxide], for which half-maximal inhibition in data set [4] (IC50) required 3.06 ± 0.29 µM.

Consider `C#CCN1CCN(CCCOc2cccc3ccc(C=O)nc23)CC1` [QN 32, 8-(3-(4-(Prop-2-yn-1-yl)piperazin-1-yl)propoxy)quinoline-2-carbaldehyde], for which the “Inhibition of Aβ1–42 aggregation” value in [1] was found to be 40.7 ± 2.4%∗. Moreover, in [2], the “Radical-scavenging DPPH assay EC50” value is “n.a. ^d (n.a., not active–% DPPH reduced at 100 μmol/L concentration lower than 10%)”. In addition, in data set [3], the Papp at 4 h, 100 μmol/L was 50.3 ± 2.8 ×10⁻⁶ cm/s and the “BBB–PAMPA permeability −LogPe” value worked out at 4.3 log [cm/s].

The Ki is the equilibrium dissociation constant of an inhibitor or competing ligand from its target. On to `CC(C)(C)/[N+]([O-])=C/c1ccccc1` [PBN, α-phenyl-tert-butylnitrone], for which, in data set [10] (read-out: eqBChE IC50), the IC50 is 478 ± 38 µM. Further, in data set [11], the “murine AChE Ki′” value is 2990 µM. Besides, in data set [11] (read-out: murine AChE Ki), the Ki is 580 µM. In addition, the “hAChE inhibition (in words)” value in data set [8] is listed as “no inhibition”. In addition, the “eeAChE inhibition (in words)” value in [12] is recorded as “no inhibition”.

As to `O=Cc1ccc2cccc(O)c2n1` [QN 30, 8-hydroxyquinoline-2-carbaldehyde], the IC50 in data set [9] was determined as 43.9 ± 3.4 µM.

In turn, `C#CCN1CCN(CCCOc2cccc3cc(/C=[N+](\[O-])C(C)(C)C)c(Cl)nc23)CC1` [QN 7, (Z)-N-tert-Butyl-1-(2-chloro-8-(3-(4-(prop-2-yn-1-yl)piperazin-1-yl)propoxy)quinolin-3-yl)methanimine oxide] displayed an IC50 in data set [4] of 13.3 ± 0.9 µM.

As to `C#CCN1CCN(CCCOc2nc3c(OC)cccc3cc2/C=[N+](\[O-])C(C)(C)C)CC1` [QN 3, (Z)-N-tert-Butyl-1-(8-methoxy-2-(3-(4-(prop-2-yn-1-yl)piperazin-1-yl)propoxy)quinolin-3-yl)methanimine oxide], in [4], half-maximal inhibition (IC50) required 2.06 ± 0.04 µM.

As for `CNC1=Nc2ccc(Cl)cc2C(c2ccccc2)=[N+]([O-])C1` [chlordiazepoxide], the Ki in data set [10] (read-out: eqBChE Ki) is 0.3 ± 0.04 µM; in data set [12] (read-out: eeAChE Ki), 50 ± 7 µM.

The term EC50 denotes the concentration that produces a half-maximal response. `Oc1ccc(/C=C/c2cc(O)cc(O)c2)cc1` [resveratrol, reference compound]: the EC50 in data set [2] stood at 50.1 µM.

For `CC(C)(C)/[N+]([O-])=C/c1ccc2cccc(O)c2n1` [QN 18, (Z)-N-tert-Butyl-1-(8-hydroxyquinolin-2-yl)methanimine oxide], in data set [1], the “Inhibition of Aβ1–42 aggregation” value is recorded as “n.i. ^e (n.i., no inhibition <20%)”. In data set [2], the EC50 was 119 ± 1.2 µM. In addition, in [3], the Papp at 4 h, 100 μmol/L was determined as 43.7 ± 4.1 ×10⁻⁶ cm/s and the “BBB–PAMPA permeability −LogPe” value was found to be 4.4 log [cm/s].

Turning to `CC(C)(C)/[N+]([O-])=C/c1cc2cccc(O)c2nc1Cl` [QN 11, (Z)-N-tert-Butyl-1-(2-chloro-8-hydroxyquinolin-3-yl)methanimine oxide], the IC50 in data set [4] was found to be 12.4 ± 0.7 µM.

As to `COc1cccc2cc(/C=[N+](\[O-])Cc3ccccc3)c(OCCCN3CCCCC3)nc12` [QN 2, (Z)-N-Benzyl-1-(8-methoxy-2-(3-(piperidin-1-yl)propoxy)quinolin-3-yl)methanimine oxide], the IC50 was 0.415 ± 0.0167 µM in data set [4] and 39.6 ± 6.1 µM in data set [8].
